Laboratory results from patent publication US9266834B2, “1, 4-disubstituted 3-cyano-pyridone derivatives and their use as positive allosteric modulators of MGLUR2-receptors” (JANSSEN PHARMACEUTICALS, INC., priority 2006, dated 2016).

Biological target: T1, human mGluR2 receptor (Homo sapiens, UniProt Q14416)
T1 construct: expressed in transfected cells; host or cells: CHO cells (membrane preparation)
Assay: [35S]GTPγS binding assay (GTPγS-PAM): positive allosteric modulation in presence of glutamate at EC25, membranes from transfected CHO cells
Type: biochemical
Conditions: in presence of mGluR2 agonist glutamate at predetermined EC25 concentration, averages of duplicate values of 11-concentration response curves, read-out: GTPgS - hR2 PAM pEC50 (converted)
From the text: The compounds provided in the present invention are positive allosteric modulators of mGluR2. These compounds appear to potentiate glutamate responses by binding to an allosteric site other than the glutamate binding site. The response of mGluR2 to a concentration of glutamate is increased when compounds of Formula (I) are present. Compounds of Formula (I) are expected to have their effect substantially at mGluR2 by virtue of their ability to enhance the function of the receptor. The behaviour of positive allosteric modulators tested at mGluR2 using the [^35S]GTPγS binding assay method described below and which is suitable for the identification of such compounds, and more particularly the compounds according to Formula (I), are shown in Table 4.
[^35S]GTPγS Binding Assay
The [^35S]GTPγS binding is a functional membrane-based assay used to study G-protein coupled receptor (GPCR) function whereby incorporation of a non-hydrolysable form of GTP, [^35S]GTPγS (guanosine 5′-triphosphate, labelled with […] ^35S), is measured. The G-protein o subunit catalyzes the exchange of guanosine 5′-diphosphate (GDP) by guanosine triphosphate (GTP) and on activation of the GPCR by an agonist, [^35S]GTPγS, becomes incorporated and cannot be cleaved to continue the exchange cycle (Harper (1998) Current Protocols in Pharmacology 2.6.1-10, John Wiley & Sons, Inc.). […] Here we describe the use of the [^35S]GTPγS binding assay using membranes from cells transfected with the human mGluR2 receptor and adapted from Schaffhauser et al ((2003) Molecular Pharmacology 4:798-810) for the detection of the positive allosteric modulation (PAM) properties of the compounds of this invention.
CHO-cells were cultured to pre-confluence and stimulated with 5 mM butyrate for 24 hours, prior to washing in PBS, and then collection by scraping in homogenisation buffer (50 mM Tris-HCl buffer, pH 7.4, 4° C.). Cell lysates were homogenized briefly (15 s) using an ultra-turrax homogenizer. The homogenate was centrifuged at 23 500×g for 10 minutes and the supernatant discarded. The pellet was resuspended in 5 mM Tris-HCl, pH 7.4 and centrifuged again (30 000×g, 20 min, 4° C.). The final pellet was resuspended in 50 mM HEPES, pH 7.4 and stored at −80° C. in appropriate aliquots before use. Protein concentration was determined by the Bradford method (Bio-Rad, USA) with bovine serum albumin as standard.
Measurement of mGluR2 positive allosteric modulators in membranes containing human mGluR2 was performed using frozen membranes that were thawed and briefly homogenised prior to pre-incubation in 96-well microplates (15 μg/assay well, 30 minutes, 30° C.) in assay buffer (50 mM HEPES pH 7.4, 100 mM NaCl, 3 mM MgCl2, 50 μM GDP, 10 μg/ml saponin,) with increasing concentrations of positive allosteric modulator (from 0.3 nM to 50 μM) and either a minimal pre-determined concentration of glutamate (PAM assay), or no added glutamate. For the PAM assay, membranes were pre-incubated with glutamate at EC25 concentration, i.e. a concentration that gives 25% of the maximal response glutamate, and is in accordance to published data (Pin et al. (1999) Eur. J. Pharmacol. 375:277-294). After addition of [^35S]GTPγS (0.1 nM, f.c.) to achieve a total reaction volume of 200 μl, microplates were shaken briefly and further incubated to allow [^35S]GTPγS incorporation on activation (30 minutes, 30° C.). The reaction was stopped by rapid vacuum filtration over glass-fibre filter plates (Unifilter 96-well GF/B filter plates, Perkin-Elmer, Downers Grove, USA) microplate using a 96-well plate cell harvester (Filtermate, Perkin-Elmer, USA), and then by washing three times with 300 μl of ice-cold wash buffer (Na2PO4.2H2O 10 mM, NaH2PO4.H2O 10 mM, pH=7.4). Filters were then air-dried, and 40 μl of liquid scintillation cocktail (Microscint-O) was added to each well, and membrane-bound [^35S]GTPγS was measured in a 96-well scintillation plate reader (Top-Count, Perkin-Elmer, USA). […]

T1 sequence (Q14416 19-872): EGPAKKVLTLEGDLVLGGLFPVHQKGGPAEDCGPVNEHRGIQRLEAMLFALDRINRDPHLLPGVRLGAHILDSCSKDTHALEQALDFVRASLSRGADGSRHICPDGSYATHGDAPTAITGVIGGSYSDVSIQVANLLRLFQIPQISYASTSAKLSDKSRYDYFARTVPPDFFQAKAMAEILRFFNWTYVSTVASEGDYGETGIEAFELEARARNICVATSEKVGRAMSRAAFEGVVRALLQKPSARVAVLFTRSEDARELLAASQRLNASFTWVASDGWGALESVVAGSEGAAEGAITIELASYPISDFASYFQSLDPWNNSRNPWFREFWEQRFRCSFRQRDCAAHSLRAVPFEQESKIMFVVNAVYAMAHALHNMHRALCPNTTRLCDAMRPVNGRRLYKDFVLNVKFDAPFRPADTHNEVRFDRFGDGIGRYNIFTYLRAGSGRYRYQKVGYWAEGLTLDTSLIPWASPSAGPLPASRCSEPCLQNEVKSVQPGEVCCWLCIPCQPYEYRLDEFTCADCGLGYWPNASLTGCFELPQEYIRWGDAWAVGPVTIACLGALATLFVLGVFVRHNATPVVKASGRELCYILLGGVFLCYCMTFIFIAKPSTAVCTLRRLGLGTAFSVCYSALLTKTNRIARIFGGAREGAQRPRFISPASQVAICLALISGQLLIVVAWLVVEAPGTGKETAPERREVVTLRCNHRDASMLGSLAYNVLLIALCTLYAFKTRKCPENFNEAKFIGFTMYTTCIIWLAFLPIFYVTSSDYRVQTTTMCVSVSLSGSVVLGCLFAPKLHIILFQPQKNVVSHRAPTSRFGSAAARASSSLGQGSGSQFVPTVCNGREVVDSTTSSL

EC50	SMILES
316 nM	CC(C)CCn1ccc(OCc2ccc(Br)cc2)c(C#N)c1=O [1-278]
3160 nM	CC(C)CCn1ccc(-c2ccc(F)cc2)c(C#N)c1=O [1-089]
501 nM	CC(C)CCn1ccc(N2CCC(Oc3ccc(F)cc3)CC2)c(C#N)c1=O [4-018]
501 nM	COc1ccc(-c2ccn(Cc3ccc(Cl)cc3)c(=O)c2C#N)cc1 [1-027]
126 nM	COC1(c2ccccc2)CCN(c2ccn(CCC(C)C)c(=O)c2C#N)CC1 [4-045]
1260 nM	C[C@@H]1COC[C@H](C)N1Cc1ccc(-c2ccn(Cc3ccc(OC(F)(F)F)cc3)c(=O)c2C#N)cc1 [1-034]
3160 nM	N#Cc1c(N[C@@H]2C[C@H]2c2ccccc2)ccn(CC2CC2)c1=O (racemic) [1-294]
1580 nM	CC(C)CCn1ccc(OCCOc2ccccc2)c(C#N)c1=O [1-280]
5010 nM	CN(Cc1ccccc1)C1CCN(c2ccn(Cc3ccc(F)cc3)c(=O)c2C#N)CC1 [4-056]
100 nM	CC(C)CCn1ccc(N2CCC(n3ccc4ccccc43)CC2)c(C#N)c1=O [4-035]
251 nM	CCCCn1ccc(-c2ccc(Oc3cccc(C(F)(F)F)n3)cc2)c(C#N)c1=O [1-068]
1580 nM	CCCCn1ccc(N2CCN(c3nccc(NCC)n3)CC2)c(C#N)c1=O [2-008]
1260 nM	CC(C)CCn1ccc(-c2ccc(N3CCN(c4ccncc4)CC3)cc2)c(C#N)c1=O [1-234]
501 nM	CCCCn1ccc(N2CCC(COc3ccccn3)CC2)c(C#N)c1=O [4-006]
631 nM	COc1ccc(-c2ccn(Cc3ccc(C)cc3)c(=O)c2C#N)cc1 [1-021]
1580 nM	CC(=O)N1CCc2cc(-c3ccn(CCC(C)C)c(=O)c3C#N)ccc21 [5-015]
1580 nM	CC(C)CCn1ccc(Oc2ccccc2)c(C#N)c1=O [1-274]
631 nM	CC(C)CCn1ccc(-c2ccc(Oc3ccncc3)cc2F)c(C#N)c1=O [1-161]
31.6 nM	CN(Cc1cccc(C(F)(F)F)c1)C1CCN(c2ccn(CCOc3ccccc3)c(=O)c2C#N)CC1 [4-065]
3980 nM	Cc1nnc(N2CCN(c3ccn(CCC(C)C)c(=O)c3C#N)CC2)c2ccccc12 [2-034]
100 nM	CN(C)c1ccc(-c2ccn(CC3CCCCC3)c(=O)c2C#N)cc1 [1-010]
5010 nM	CCCCn1ccc(-c2ccc(Oc3ncccn3)cc2)c(C#N)c1=O [1-074]
3980 nM	Cc1ccccc1Cn1ccc(-c2cccs2)c(C#N)c1=O [1-015]
200 nM	CCOc1ccccc1OC1CCN(c2ccn(CCC(C)C)c(=O)c2C#N)CC1 [4-021]

EC50	SMILES
794 nM	CC(C)CCn1ccc(N2CCN(CCOc3cccc(C(F)(F)F)c3)CC2)c(C#N)c1=O [2-020]
1260 nM	CC(C)CCn1ccc(N2CCN(Cc3ccc(F)c(F)c3)CC2)c(C#N)c1=O [2-015]
3160 nM	CC(=O)NCCNc1ccc(-c2ccn(CCC(C)C)c(=O)c2C#N)cc1 [1-182]
631 nM	CCCCn1ccc(-c2ccc(Oc3ncccc3C#N)cc2)c(C#N)c1=O [1-071]
2000 nM	N#Cc1c(N2CCC(c3ccccc3)CC2)ccn(CC2CCCCO2)c1=O (stereo not shown) [4-048]
794 nM	CCCCn1ccc(-c2ccc3c(cnn3Cc3ccccn3)c2)c(C#N)c1=O [5-023]
158 nM	CCCCn1ccc(N2CCN(c3ncc(C4CC4)cn3)CC2)c(C#N)c1=O [2-006]
6310 nM	CC(C)CCn1ccc(-c2ccc(OCc3nnc[nH]3)cc2)c(C#N)c1=O [1-168]
200 nM	CCCCn1ccc(N[C@H]2CC[C@H](c3ccccc3)CC2)c(C#N)c1=O [1-297]
631 nM	N#Cc1c(N2CCN(Cc3ccccc3)CC2)ccn(Cc2ccc(OC(F)(F)F)cc2)c1=O [2-042]
1580 nM	COc1cccc(CCc2ccn(CCC(C)C)c(=O)c2C#N)c1 [1-264]
63.1 nM	CC(C)CCn1ccc(-c2ccc(NCc3ccccc3)cc2)c(C#N)c1=O [1-194]
1000 nM	COc1ccccc1N1CCCN(c2ccn(CCC(C)C)c(=O)c2C#N)CC1 [5-044]
1260 nM	CC(C)CCn1ccc(-c2ccc(Nc3ccncc3)cc2)c(C#N)c1=O [1-208]
50.1 nM	CC(C)CCn1ccc(-c2ccc3c(ccn3-c3ccccc3)c2)c(C#N)c1=O [5-019]
1580 nM	CC(C)CCn1ccc(N2CCC(N(C)Cc3ccccc3)CC2)c(C#N)c1=O [4-026]
794 nM	CC(C)CCn1ccc(N2CCN(c3ncccn3)CC2)c(C#N)c1=O [2-028]
79.4 nM	CC(C)CCn1ccc(-c2ccc(OCc3ccncc3)c(Cl)c2)c(C#N)c1=O [1-165]
5010 nM	N#Cc1c(N2CCC(O)(c3cccnc3)CC2)ccn(Cc2ccc(OC(F)(F)F)cc2)c1=O [4-063]
2000 nM	CC(C)CCn1ccc(Nc2ccc(N3CCOCC3)cc2)c(C#N)c1=O [1-300]
3980 nM	CCCCn1ccc(OCc2ccc(-c3cccc(C)n3)cc2)c(C#N)c1=O [1-306]
3980 nM	COC(=O)c1cccc(-c2ccn(CCC(C)C)c(=O)c2C#N)c1 [1-242]
398 nM	N#Cc1c(-c2ccc(Oc3ccnc(N4CCCC4)c3)cc2)ccn(CC2CC2)c1=O [1-005]
126 nM	N#Cc1c(OCc2ccccc2)ccn(Cc2ccc(OC(F)(F)F)cc2)c1=O [1-272]

EC50	SMILES
39.8 nM	CC(C)CCn1ccc(N2CCC3(CCc4ccccc43)CC2)c(C#N)c1=O [5-033]
3980 nM	CC(C)CCn1ccc(Nc2ccccc2)c(C#N)c1=O [1-298]
6310 nM	CC(C)CCn1ccc(N2CCOc3ccccc32)c(C#N)c1=O [5-030]
251 nM	CC(C)CCn1ccc(OCc2ccc(C(F)(F)F)cc2)c(C#N)c1=O [1-277]
3160 nM	Cc1ccc(C2(O)CCN(c3ccn(Cc4ccc(OC(F)(F)F)cc4)c(=O)c3C#N)CC2)cn1 [4-053]
126 nM	CC(C)CCn1ccc(-c2ccc(N(C)c3ccccc3)cc2)c(C#N)c1=O [1-195]
200 nM	CC(C)CCn1ccc(-c2ccc3sccc3c2)c(C#N)c1=O [1-259]
50.1 nM	COc1ccc(C#Cc2ccn(CCC(C)C)c(=O)c2C#N)cc1 [1-268]
126 nM	Cc1ccc(OC2CCN(c3ccn(CCC(C)C)c(=O)c3C#N)CC2)cc1 [4-017]
501 nM	CC(C)CCn1ccc(Oc2ccc(N3CCCC3)cc2)c(C#N)c1=O [1-291]
2000 nM	COc1ccc(-c2ccn(Cc3ccccc3C)c(=O)c2C#N)cc1 [1-016]
200 nM	CC(C)CCn1ccc(N2CCc3c(sc4ccc(Cl)cc34)C2)c(C#N)c1=O [5-042]
316 nM	CC(=O)CCNc1ccc(-c2ccn(CCC(C)C)c(=O)c2C#N)cc1 [1-180]
1000 nM	CC(C)CCn1ccc(-c2ccc(OCCOC3CCCCO3)cc2)c(C#N)c1=O (stereo not shown) [1-137]
1000 nM	CC(C)CCn1ccc(-c2ccc(OCCO)cc2)c(C#N)c1=O [1-099]
5010 nM	CC(C)CCn1ccc(N2CCCC(Nc3ccccc3)C2)c(C#N)c1=O (stereo not shown) [4-023]
316 nM	COc1ccc(-c2ccn(Cc3ccc(F)cc3)c(=O)c2C#N)cc1 [1-022]
6310 nM	COc1cc(-c2ccn(CCC(C)C)c(=O)c2C#N)ccc1O [1-108]
501 nM	COc1ccc(-c2ccn(Cc3cccc(Cl)c3)c(=O)c2C#N)cc1 [1-026]
2000 nM	CCCCn1ccc(N2CCN(c3ccccn3)CC2)c(C#N)c1=O [2-004]
2000 nM	CC(C)CCn1ccc(-c2ccc(COCC#N)cc2)c(C#N)c1=O [1-132]
1000 nM	COCCN(C)c1ccc(-c2ccn(CCC(C)C)c(=O)c2C#N)cc1OC [1-185]
